# How the values were obtained:
# rice = assay: Test C flooded paddy test; format: in vivo, Oryza sativa; details: Flood
# From the text: (§1) Plant species in the flooded paddy test consisted of rice (Oryza sativa), sedge, umbrella (small-flower umbrella sedge, Cyperus difformis), ducksalad (Heteranthera limosa), and barnyardgrass (Echinochloa crus-galli) grown to the 2-leaf stage for testing. At time of treatment, test pots were flooded to 3 cm above the soil surface, treated by application of test compounds directly to the paddy water, and then maintained at that water depth for the duration of the test. Treated plants and controls were maintained in a greenhouse for 13 to 15 days, after which time all species were compared to controls and visually evaluated. Plant response ratings, summarized in Table C, are based on a scale of 0 to 100 where 0 is no effect and 100 is complete control. A dash (-) response means no test result.
# barnyardgrass [1] = assay: Test A pre-/postemergence herbicide test; format: in vivo, Echinochloa crus-galli
# Summary of the method: (§2)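 Planted in loam–sand blend; treated the same day preemergence by directed soil spray, while separately grown plants at one- to two-leaf stage got postemergence spray. Compared visually with untreated controls after approximately 10 days; 100 means complete control.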
# crabgrass, large = assay: Test A pre-/postemergence herbicide test; format: in vivo, Digitaria sanguinalis
# Summary of the method: as §2
# ducksalad = assay: Test C flooded paddy test; format: in vivo, Heteranthera limosa; details: Flood
# From the text: as §1
# morningglory = assay: Test A pre-/postemergence herbicide test; format: in vivo, Ipomoea spp.
# Summary of the method: as §2
# sedge, umbrella = assay: Test C flooded paddy test; format: in vivo, Cyperus difformis; details: Flood
# Summary of the method: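 Plants at the 2-leaf stage in pots flooded to 3 cm were treated by applying compound directly to the paddy water, with depth held throughout. After 13 to 15 days in a greenhouse, response was rated visually against controls on a 0 (no effect) to 100 (complete control) scale.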
# giant foxtail = assay: Test A pre-/postemergence herbicide test; format: in vivo, Setaria faberii
# Summary of the method: as §2
# barnyardgrass [2] = assay: Test C flooded paddy test; format: in vivo, Echinochloa crus-galli; details: Flood
# From the text: as §1
# pigweed = assay: Test A pre-/postemergence herbicide test; format: in vivo, Amaranthus retroflexus
# Summary of the method: as §2
# wheat = assay: Test A pre-/postemergence herbicide test; format: in vivo, Triticum aestivum
# Summary of the method: as §2
# velvetleaf = assay: Test A pre-/postemergence herbicide test; format: in vivo, Abutilon theophrasti
# Summary of the method: as §2
# corn = assay: Test A pre-/postemergence herbicide test; format: in vivo, Zea mays
# Summary of the method: as §2
# [3] = 31 g ai/ha, scale of 0 to 100 where 0 is no effect and 100 is complete control, 13 to 15 days
# [4] = 62 g ai/ha, scale of 0 to 100 where 0 is no effect and 100 is complete control, 13 to 15 days
# [5] = 125 g ai/ha, scale of 0 to 100 where 0 is no effect and 100 is complete control, 13 to 15 days
# [6] = Postemergence, 125 g ai/ha, 0 to 100 scale, 0 no effect, 100 complete control
# [7] = Postemergence, 500 g ai/ha, 0 to 100 scale (0 no effect, 100 complete control)
# [8] = Preemergence, 125 g ai/ha, visual rating on 0 to 100 scale (0 no effect, 100 complete control)
# [9] = preemergence, 500 g ai/ha, 0 to 100 scale
# [10] = Postemergence, 1000 g ai/ha, 0 to 100 scale (0 no effect, 100 complete control)
# [11] = Preemergence, 1000 g ai/ha, visual rating on 0 to 100 scale (0 no effect, 100 complete control), approx. 10 days
compound,measurement,setting,value
O=C1NCC(c2cccc(F)c2)C1C(=O)Nc1ccccc1C(F)(F)F (racemic) [Compound 2],"Plant response rating, Rice",rice; [3],0
same,"Plant response rating, Rice",rice; [4],0
same,"Plant response rating, Rice",rice; [5],0
same,"Plant response rating, Rice","rice; 250 g ai/ha, scale 0 to 100",0
same,"Plant response rating, Barnyardgrass",barnyardgrass [1]; [6],30
same,"Plant response rating, Barnyardgrass",barnyardgrass [1]; [7],60
same,Barnyardgrass plant response rating,barnyardgrass [1]; [8],30
same,"Plant response rating, Barnyardgrass","barnyardgrass [1]; preemergence, 500 g ai/ha, 0 to 100 scale (0 no effect, 100 complete control)",60
same,"Plant response rating, Crabgrass, Large","crabgrass, large; [6]",50
same,"Plant response rating, Crabgrass, Large","crabgrass, large; [7]",70
same,"Crabgrass, Large plant response rating","crabgrass, large; [8]",90
same,"Plant response rating, Crabgrass, Large","crabgrass, large; [9]",90
same,"Plant response rating, Ducksalad",ducksalad; [3],0
same,"Plant response rating, Ducksalad",ducksalad; [4],0
same,"Plant response rating, Ducksalad",ducksalad; [5],0
same,"Plant response rating, Ducksalad","ducksalad; 250 g ai/ha, scale 0 to 100",0
same,"Plant response rating, Morningglory",morningglory; [7],0
same,Morningglory plant response rating,morningglory; [8],0
same,"Plant response rating, Morningglory",morningglory; [9],0
same,"Plant response rating, Sedge, Umbrella","sedge, umbrella; [3]",0
same,"Plant response rating, Sedge, Umbrella","sedge, umbrella; [4]",0
same,"Plant response rating, Sedge, Umbrella","sedge, umbrella; [5]",0
same,"Plant response rating, Sedge, Umbrella","sedge, umbrella; 250 g ai/ha, scale 0 to 100",0
same,"Plant response rating, Foxtail, Giant",giant foxtail; [6],30
same,"Plant response rating, Foxtail, Giant",giant foxtail; [7],60
same,"Foxtail, Giant plant response rating",giant foxtail; [8],90
same,"Plant response rating, Foxtail, Giant",giant foxtail; [9],90
same,"Plant response rating, Barnyardgrass",barnyardgrass [2]; [3],0
same,"Plant response rating, Barnyardgrass",barnyardgrass [2]; [4],0
same,"Plant response rating, Barnyardgrass",barnyardgrass [2]; [5],0
same,"Plant response rating, Barnyardgrass","barnyardgrass [2]; 250 g ai/ha, scale 0 to 100",0
same,"Plant response rating, Pigweed",pigweed; [7],0
same,Pigweed plant response rating,pigweed; [8],0
same,"Plant response rating, Pigweed",pigweed; [9],0
same,"Plant response rating, Wheat",wheat; [7],0
same,Wheat plant response rating,wheat; [8],0
same,"Plant response rating, Wheat",wheat; [9],0
same,"Plant response rating, Velvetleaf",velvetleaf; [7],0
same,Velvetleaf plant response rating,velvetleaf; [8],0
same,"Plant response rating, Velvetleaf",velvetleaf; [9],0
same,"Plant response rating, Corn",corn; [6],0
same,"Plant response rating, Corn",corn; [7],0
same,Corn plant response rating,corn; [8],0
same,"Plant response rating, Corn",corn; [9],0
CS(=O)(=O)c1ccccc1NC(=O)C1C(=O)NCC1c1ccc(F)c(F)c1 (racemic) [Compound 21],"Plant response rating, Rice",rice; [3],0
same,"Plant response rating, Rice",rice; [4],0
same,"Plant response rating, Rice",rice; [5],0
same,"Plant response rating, Rice","rice; 250 g ai/ha, scale 0 to 100",0
same,"Plant response rating, Barnyardgrass",barnyardgrass [1]; [10],90
same,"Plant response rating, Barnyardgrass",barnyardgrass [1]; [11],90
same,"Plant response rating, Crabgrass, Large","crabgrass, large; [10]",80
same,"Plant response rating, Crabgrass, Large","crabgrass, large; [11]",90
same,"Plant response rating, Ducksalad",ducksalad; [3],0
same,"Plant response rating, Ducksalad",ducksalad; [4],0
same,"Plant response rating, Ducksalad",ducksalad; [5],50
same,"Plant response rating, Ducksalad","ducksalad; 250 g ai/ha, scale 0 to 100",85
same,"Plant response rating, Morningglory",morningglory; [10],0
same,"Plant response rating, Morningglory",morningglory; [11],40
same,"Plant response rating, Sedge, Umbrella","sedge, umbrella; [3]",0
same,"Plant response rating, Sedge, Umbrella","sedge, umbrella; [4]",0
same,"Plant response rating, Sedge, Umbrella","sedge, umbrella; [5]",0
same,"Plant response rating, Sedge, Umbrella","sedge, umbrella; 250 g ai/ha, scale 0 to 100",0
same,"Plant response rating, Foxtail, Giant",giant foxtail; [10],80
same,"Plant response rating, Foxtail, Giant",giant foxtail; [11],90
same,"Plant response rating, Barnyardgrass",barnyardgrass [2]; [3],0
same,"Plant response rating, Barnyardgrass",barnyardgrass [2]; [4],0
same,"Plant response rating, Barnyardgrass",barnyardgrass [2]; [5],0
same,"Plant response rating, Barnyardgrass","barnyardgrass [2]; 250 g ai/ha, scale 0 to 100",0
same,"Plant response rating, Pigweed",pigweed; [11],40
same,"Plant response rating, Wheat",wheat; [10],30
same,"Plant response rating, Wheat",wheat; [11],20
same,"Plant response rating, Velvetleaf",velvetleaf; [10],60
same,"Plant response rating, Velvetleaf",velvetleaf; [11],50
same,"Plant response rating, Corn",corn; [10],0
same,"Plant response rating, Corn",corn; [11],0
